Results taken from BindingDB's records for patent US20250313563 (The Broad Institute, 2025).
“And” between values parts separate entries of the source, which are not always exact repeats. Identical values can stand only once.

What was measured:
[1] = target: Glycogen synthase kinase-3 alpha (Homo sapiens, UniProt P49840); test: TR-FRET Assay
Procedure: (§1) The assay was performed in a white, 384 well, low volume, flat bottom plate (Grenier). […] The kinase activity was quenched with 2 μL of 250 mM EDTA. A 10 μL volume of 40 nM Strepavidin-d2, 2 nM Tb2+-pSer641 antibody in TR-FRET Detection Buffer (Invitrogen) was then added.

[2] = target: Glycogen synthase kinase-3 beta (Homo sapiens, UniProt P49841); test: TR-FRET Assay
Sequence of Glycogen synthase kinase-3 beta (P49841 whole entry): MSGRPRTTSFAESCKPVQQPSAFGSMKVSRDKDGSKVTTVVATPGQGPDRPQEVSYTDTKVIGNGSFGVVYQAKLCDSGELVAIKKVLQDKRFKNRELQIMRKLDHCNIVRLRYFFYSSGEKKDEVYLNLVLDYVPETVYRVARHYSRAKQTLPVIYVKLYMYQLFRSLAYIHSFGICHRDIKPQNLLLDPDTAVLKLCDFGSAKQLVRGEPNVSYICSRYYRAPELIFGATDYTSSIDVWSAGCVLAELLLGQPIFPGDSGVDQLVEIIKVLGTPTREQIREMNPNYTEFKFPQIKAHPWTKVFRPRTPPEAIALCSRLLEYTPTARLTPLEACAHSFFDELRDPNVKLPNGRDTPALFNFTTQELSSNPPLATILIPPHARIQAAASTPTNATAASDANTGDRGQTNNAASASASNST
Procedure: as §1

Sequence of Glycogen synthase kinase-3 alpha (P49840 whole entry): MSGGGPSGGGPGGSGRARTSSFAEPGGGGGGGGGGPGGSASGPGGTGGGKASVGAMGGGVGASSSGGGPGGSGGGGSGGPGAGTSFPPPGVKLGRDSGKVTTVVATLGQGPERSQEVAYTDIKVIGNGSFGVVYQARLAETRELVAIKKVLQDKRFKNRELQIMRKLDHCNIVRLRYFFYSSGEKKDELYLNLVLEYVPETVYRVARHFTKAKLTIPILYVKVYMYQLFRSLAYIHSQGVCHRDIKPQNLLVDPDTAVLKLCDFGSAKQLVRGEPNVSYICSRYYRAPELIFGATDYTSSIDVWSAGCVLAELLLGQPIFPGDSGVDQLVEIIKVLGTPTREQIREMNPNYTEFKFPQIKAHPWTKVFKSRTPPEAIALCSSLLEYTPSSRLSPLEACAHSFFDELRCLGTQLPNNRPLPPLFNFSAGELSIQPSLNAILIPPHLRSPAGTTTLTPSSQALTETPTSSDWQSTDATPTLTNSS

Compound | IC50 [1] | IC50 [2]
CC(C)(C)CC1=C2C(N=N1)NC1=C(C(=O)CC(C)(C)C1)C21COC1 (stereo not drawn) [US20250313563, Compound 90709] | 1790 nM and 13700 nM | 
CC(=O)N1CC2(C1)C1=C(CC(C)(C)CC1=O)NC1N=NC(CC(C)(C)C)=C12 (stereo not drawn) [US20250313563, Compound 90991] | 3010 nM and 17500 nM | 
CC(C)(C)CC1N=NC2=C1[C@](C)(c1cccc(S(C)(=O)=O)c1)C1=C(CC(C)(C)CC1=O)N2 (stereo partly drawn) [US20250313563, Compound 114687] | 100 to 1000 nM | 
Cc1ccc(S(C)(=O)=O)cc1[C@]1(C)C2=C(CC(C)(C)CC2=O)NC2=C1C(CC(C)(C)C)N=N2 (stereo partly drawn) [US20250313563, Compound 126397] | 1000 to 5000 nM | 
CC[C@@]1(c2cccc(Br)c2)C2=CN=NC2NC2=C1C(=O)CC(C)(C)C2 (stereo partly drawn) [US20250313563, Compound 790734] | 100 to 1000 nM | 
CC[C@@]1(c2cccc(Cl)c2)C2=C(CC(C)(C)CC2=O)NC2N=NC(C(F)(F)F)=C21 (stereo partly drawn) [US20250313563, Compound 801309] | 1000 to 5000 nM | 
CC[C@@]1(c2cccc(OC(C)C)c2)C2=CN=NC2NC2=C1C(=O)CC(C)(C)C2 (stereo partly drawn) [US20250313563, Compound 811563] | 1000 to 5000 nM | 
CC[C@@]1(c2cccc(N3CCCC3)c2)C2=C(CC(C)(C)CC2=O)NC2N=NC(C(F)(F)F)=C21 (stereo partly drawn) [US20250313563, Compound 819575] | 100 to 1000 nM | 
CC[C@@]1(c2cccc(C(F)F)c2)C2=CN=NC2NC2=C1C(=O)CC(C)(C)C2 (stereo partly drawn) [US20250313563, Compound 826716] | 100 to 1000 nM | 
CC[C@@]1(c2cccc(-c3ccnc(C)c3)c2)C2=CN=NC2NC2=C1C(=O)CC(C)(C)C2 (stereo partly drawn) [US20250313563, Compound 865170] | 1000 to 5000 nM | 
CC[C@@]1(c2cccc(N(C)c3ccncc3)c2)C2=CN=NC2NC2=C1C(=O)CC(C)(C)C2 (stereo partly drawn) [US20250313563, Compound 874261] | 100 to 1000 nM | 
CC[C@@]1(c2cccc(N(C)c3cccnc3)c2)C2=CN=NC2NC2=C1C(=O)CC(C)(C)C2 (stereo partly drawn) [US20250313563, Compound 874299] | 100 to 1000 nM | 
CC[C@@]1(c2cccc(-c3ccncc3)c2)C2=CN=NC2NC2=C1C(=O)C[C@@H](C)C2 (stereo partly drawn) [US20250313563, Compound 874315] | 1000 to 5000 nM | 
CC[C@@]1(c2cccc(-n3ccnc3)c2)C2=CN=NC2NC2=C1C(=O)CC(C)(C)C2 (stereo partly drawn) [US20250313563, Compound 874533] | 100 to 1000 nM | 
CC[C@@]1(c2cccc(N(C)c3cccnn3)c2)C2=CN=NC2NC2=C1C(=O)CC(C)(C)C2 (stereo partly drawn) [US20250313563, Compound 911976] | 100 to 1000 nM | 
CC[C@@]1(c2cccc(N(C)c3ncccn3)c2)C2=CN=NC2NC2=C1C(=O)CC(C)(C)C2 (stereo partly drawn) [US20250313563, Compound 911981] | < 100 nM | 
CC[C@@]1(c2cccc(-c3ccnc(OC)c3)c2)C2=CN=NC2NC2=C1C(=O)CC(C)(C)C2 (stereo partly drawn) [US20250313563, Compound 911989] | 1000 to 5000 nM | 
CC[C@@]1(c2cccc(-c3c(C)nn(C)c3C)c2)C2=CN=NC2NC2=C1C(=O)CC(C)(C)C2 (stereo partly drawn) [US20250313563, Compound 911991] | 100 to 1000 nM | 
CC[C@@]1(c2cccc(N3CCc4ccncc43)c2)C2=CN=NC2NC2=C1C(=O)CC(C)(C)C2 (stereo partly drawn) [US20250313563, Compound 912004] | 1000 to 5000 nM | 
CC[C@]1(c2cccc([C@H]3CCOC(C)(C)C3)c2)C2=CN=NC2NC2=C1C(=O)CC(C)(C)C2 (stereo partly drawn) [US20250313563, Compound 912088] | 100 to 1000 nM | 

Compound | IC50 [1] | IC50 [2]
CC[C@@]1(c2cccc([C@H]3CCOC(C)(C)C3)c2)C2=CN=NC2NC2=C1C(=O)CC(C)(C)C2 (stereo partly drawn) [US20250313563, Compound 912090] | 100 to 1000 nM | 
CC[C@@]1(c2cccc(-c3cn(C)nc3C)c2)C2=C(CC(C)(C)CC2=O)NC2N=NC(C)=C21 (stereo partly drawn) [US20250313563, Compound 913034] | 1000 to 5000 nM | 
CC[C@]1(c2cccc(-c3ccn(C)n3)c2)C2=C(CC(C)(C)CC2=O)NC2N=NC(C)=C21 (stereo partly drawn) [US20250313563, Compound 913039] | 1000 to 5000 nM | 
CC[C@]1(c2cccc(-c3ccnc(C(F)(F)F)c3)c2)C2=C(CC(C)(C)CC2=O)NC2N=NC(C)=C21 (stereo partly drawn) [US20250313563, Compound 913049] | 100 to 1000 nM | 
CC[C@]1(c2cccc(-c3ccnc(C)c3)c2)C2=C(CC(C)(C)CC2=O)NC2N=NC(C)=C21 (stereo partly drawn) [US20250313563, Compound 913051] | 100 to 1000 nM | 
CC[C@@]1(c2cccc(S(=O)(=O)CC3CC3)c2)C2=CN=NC2NC2=C1C(=O)CC(C)(C)C2 (stereo partly drawn) [US20250313563, Compound 917151] | 1000 to 5000 nM | 
COC(=O)C1CCC2(CC1)C1=C(N=NC1)NC1=C2C(=O)CC(C)(C)C1 (stereo not drawn) [US20250313563, Compound 918277] | < 100 nM | 
CC[C@@]1(c2cccc(N3C[C@@H](C)[C@@H](C)C3)c2)C2=CN=NC2NC2=C1C(=O)CC(C)(C)C2 (stereo partly drawn) [US20250313563, Compound 918327] | 1000 to 5000 nM | 
CC[C@]1(c2cccc(-c3cc(C)ncc3F)c2)C2=CN=NC2NC2=C1C(=O)CC(C)(C)C2 (stereo partly drawn) [US20250313563, Compound 927339] | 1000 to 5000 nM | 
CC[C@@]1(c2cccc(-c3ccnc(C)c3C)c2)C2=CN=NC2NC2=C1C(=O)CC(C)(C)C2 (stereo partly drawn) [US20250313563, Compound 943517] | 100 to 1000 nM | 
CC[C@]1(c2cccc(S(=O)(=O)C3CCCCC3)c2)C2=CN=NC2NC2=C1C(=O)CC(C)(C)C2 (stereo partly drawn) [US20250313563, Compound 943547] | 1000 to 5000 nM | 
CC[C@@]1(c2cccc(-c3ccncc3C(F)(F)F)c2)C2=CN=NC2NC2=C1C(=O)CC(C)(C)C2 (stereo partly drawn) [US20250313563, Compound 943913] | < 100 nM | 
Cn1ccc(S(=O)(=O)N2CCC3(CC2)C2=C(N=NC2)NC2=C3C(=O)NC(C)(C)C2)n1 [US20250313563, Compound 943961] | < 100 nM and 100 to 1000 nM | 
CC[C@@]1(c2cccc(C(F)(F)F)c2)C2=CN=NC2NC2=C1C(=O)N[C@H](c1ccccc1)C2 (stereo partly drawn) [US20250313563, Compound 945363] | 1000 to 5000 nM | 
CC[C@@]1(c2cccc(C(F)(F)F)c2)C2=CN=NC2NC2=C1C(=O)NC[C@@H]2C (stereo partly drawn) [US20250313563, Compound 945384] | 1000 to 5000 nM | 
CC[C@@]1(c2cccc(-c3cnn4c3CCCC4)c2)C2=CN=NC2NC2=C1C(=O)CC(C)(C)C2 (stereo partly drawn) [US20250313563, Compound 945544] | 100 to 1000 nM | 
CCc1cccc(N(C)c2cccc([C@]3(CC)C4=CN=NC4NC4=C3C(=O)CC(C)(C)C4)c2)n1 (stereo partly drawn) [US20250313563, Compound 945726] | 1000 to 5000 nM | 
CC[C@]1(c2cccc(C(F)(F)F)c2)C2=CN=NC2NC2=C1C(=O)N[C@@H](C(C)(C)C)C2 (stereo partly drawn) [US20250313563, Compound 945921] | 1000 to 5000 nM | 
CC[C@]1(c2cccc(-c3ccnc(C)c3)c2)C2=CN=NC2NC2=C1C(=O)N(C)C(C)(C)C2 (stereo partly drawn) [US20250313563, Compound 949004] |  | 100 to 1000 nM
CC[C@@]1(c2cccc(-c3cn(C)nc3C)c2)C2=CN=NC2NC2=C1C(=O)N(C)C(C)(C)C2 (stereo partly drawn) [US20250313563, Compound 949005] |  | 1000 to 5000 nM

Compound | IC50 [1] | IC50 [2]
CC[C@@]1(c2cccc(-c3cnn(C)c3)c2)C2=C(CC(C)(C)NC2=O)NC2N=NC(F)=C21 (stereo partly drawn) [US20250313563, Compound 949011] |  | 100 to 1000 nM
CC[C@]1(c2cccc(C(F)(F)F)c2)C2=CN=NC2NC2=C1C(=O)N(c1cccc(C)c1)CC2 (stereo partly drawn) [US20250313563, Compound 949040] |  | 100 to 1000 nM
CC[C@@]1(c2cccc(-c3cnn(C(C)(C)C)c3)c2)C2=CN=NC2NC2=C1C(=O)NC(C)(C)C2 (stereo partly drawn) [US20250313563, Compound 949112] |  | 100 to 1000 nM and > 5000 nM
CC[C@@]1(c2cccc(C(F)(F)F)c2)C2=C(CCN(c3cnc(OC)nc3)C2=O)NC2N=NC(C)=C21 (stereo partly drawn) [US20250313563, Compound 949126] |  | 100 to 1000 nM
CC[C@]1(c2cccc(C(F)(F)F)c2)C2=CN=NC2NC2=C1C(=O)N(c1ccccc1C)CC2 (stereo partly drawn) [US20250313563, Compound 949128] |  | 100 to 1000 nM
CC[C@@]1(c2cccc(N(C)c3ncccn3)c2)C2=C(CC(C)(C)NC2=O)NC2N=NC(C(F)(F)F)=C21 (stereo partly drawn) [US20250313563, Compound 949181] |  | < 100 nM and 100 to 1000 nM
CC[C@@]1(c2cccc(N3CCCCC3)c2)C2=C(CC(C)(C)NC2=O)NC2N=NC(C(F)(F)F)=C21 (stereo partly drawn) [US20250313563, Compound 949183] |  | 100 to 1000 nM
CC[C@]1(c2cccc(-c3cn(C)nc3C(F)(F)F)c2)C2=CN=NC2NC2=C1C(=O)NC(C)(C)C2 (stereo partly drawn) [US20250313563, Compound 949266] |  | 100 to 1000 nM
CC[C@]1(c2cccc(C(F)(F)F)c2)C2=CN=NC2NC2=C1C(=O)N(c1cnn(C)c1)CC2 (stereo partly drawn) [US20250313563, Compound 949270] |  | 100 to 1000 nM
CC[C@]1(c2cccc(C(F)(F)F)c2)C2=CN=NC2NC2=C1C(=O)N(c1cnc(OC)nc1)[C@H](C)C2 (stereo partly drawn) [US20250313563, Compound 949351] |  | 100 to 1000 nM
CC[C@]1(c2cccc(-c3c(C)cnc4ccccc34)c2)C2=C(CC(C)(C)NC2=O)NC2=NN=CC21 (stereo partly drawn) [US20250313563, Compound 949398] |  | 100 to 1000 nM
CC[C@]1(c2cccc(C(F)(F)F)c2)C2=CN=NC2NC2=C1C(=O)N(c1ccn(C)n1)CC2 (stereo partly drawn) [US20250313563, Compound 949835] |  | 100 to 1000 nM
CC[C@@]1(c2cccc(C(F)(F)F)c2)C2=CN=NC2NC2=C1C(=O)C[C@]1(CCNC1=O)C2 (stereo partly drawn) [US20250313563, Compound 950324] |  | 100 to 1000 nM
CC[C@@]1(c2cccc(Oc3ncccn3)c2)C2=C(CC(C)(C)CC2=O)NC2N=NC(C(F)(F)F)=C21 (stereo partly drawn) [US20250313563, Compound 951604] |  | 100 to 1000 nM
CC1(C)CC(=O)C2=C(C1)NC1=C(CN=N1)[C@]21CCN(S(=O)(=O)c2ccccc2)C1 [US20250313563, Compound 951787] |  | 100 to 1000 nM
CC[C@@]1(c2cccc(-c3cnn(Cc4ccc(C(F)(F)F)cc4)c3)c2)C2=CN=NC2NC2=C1C(=O)NC(C)(C)C2 (stereo partly drawn) [US20250313563, Compound 951849] |  | 100 to 1000 nM
CC[C@@]1(c2cccc(C(F)F)c2)C2=C(CC(C)(C)NC2=O)NC2N=NC(C(F)(F)F)=C21 (stereo partly drawn) [US20250313563, Compound 951948] |  | 100 to 1000 nM
CC[C@@]1(c2cccc(-c3cnn(CC#N)c3)c2)C2=CN=NC2NC2=C1C(=O)NC(C)(C)C2 (stereo partly drawn) [US20250313563, Compound 952210] |  | 100 to 1000 nM
